{"source": "patent US12122760B2", "about": "“Compound, composition, and use thereof in preparation of drug” (CHANGSHA ZEDA MEDICAL TECH. CO., LTD, priority 2019, dated 2024)", "assay_type_in_all_cases": "cell-based", "key": {"androgen receptor (AR)": {"molecular_target": "T1, androgen receptor (AR) (Homo sapiens, UniProt P10275)", "T1 construct": "expressed in transfected cells; host or cells: 293T cells", "T1 sequence (P10275 1-920)": "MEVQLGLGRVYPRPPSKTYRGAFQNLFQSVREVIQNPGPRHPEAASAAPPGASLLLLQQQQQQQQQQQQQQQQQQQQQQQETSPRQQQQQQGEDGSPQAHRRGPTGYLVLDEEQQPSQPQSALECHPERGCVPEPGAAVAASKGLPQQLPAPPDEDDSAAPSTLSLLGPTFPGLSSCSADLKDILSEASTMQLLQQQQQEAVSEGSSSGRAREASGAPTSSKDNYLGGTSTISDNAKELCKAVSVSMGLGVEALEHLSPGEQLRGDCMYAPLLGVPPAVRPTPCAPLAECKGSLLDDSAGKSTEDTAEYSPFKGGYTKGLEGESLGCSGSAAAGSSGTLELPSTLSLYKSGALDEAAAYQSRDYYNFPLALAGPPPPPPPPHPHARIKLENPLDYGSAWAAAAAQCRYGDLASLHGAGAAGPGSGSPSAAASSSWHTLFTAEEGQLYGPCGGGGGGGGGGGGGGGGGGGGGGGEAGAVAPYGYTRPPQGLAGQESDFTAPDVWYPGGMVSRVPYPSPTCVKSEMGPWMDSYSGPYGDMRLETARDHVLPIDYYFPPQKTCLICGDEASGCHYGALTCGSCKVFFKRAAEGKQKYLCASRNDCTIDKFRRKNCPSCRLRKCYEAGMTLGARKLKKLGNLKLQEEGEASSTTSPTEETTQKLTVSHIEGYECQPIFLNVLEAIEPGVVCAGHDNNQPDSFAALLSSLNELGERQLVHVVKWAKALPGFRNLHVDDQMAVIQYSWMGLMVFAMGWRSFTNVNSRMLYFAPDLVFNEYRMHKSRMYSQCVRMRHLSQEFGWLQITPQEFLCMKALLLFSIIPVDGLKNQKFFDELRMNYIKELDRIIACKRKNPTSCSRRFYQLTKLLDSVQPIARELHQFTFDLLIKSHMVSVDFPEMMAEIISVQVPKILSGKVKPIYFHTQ", "assay": "Luciferase reporter gene experiment (MMTV-LUC + pSV-AR in 293T cells)", "details": "10 nM DHT, FIG. 2", "experimental": "293T cells are cultured in a 96-well plate. AR plasmids and luciferase genes with AR target promoters are co-transfected in the 293T cells. AR activates the target promoters to express luciferase, and the expression level of the luciferase is directly proportional to AR activation. Adding DHT to the cells can activate AR and express the luciferase, thus enhancing fluorescence signal detection. By detecting the fluorescent signal, it can be examined whether an added drug has AR antagonist activity.\nThe luciferase reporter gene plasmid MMTV-LUC containing the androgen receptor (AR) target promoters and the plasmid pSV-AR expressing the androgen receptor (AR) are constructed. The 293T cells are inoculated in a 96-well plate, wherein each well containing 1×10^4 cells. The cells are incubated overnight to stick to the wall. On the second day, Lipofectamine® 3000 (Life technologies, USA) is used to transfect the plasmid into the cells. Each well is added with 180 ng of MMTV-LUC plasmid and 20 ng of pSV-AR plasmid. On the third day, each well is added with 10 nM of the DHT and the drugs of different concentrations of 1 nM, 10 nM, 100 nM, 1 uM, 10 uM, 25 uM, 50 uM respectively. The control is 10 nM of the DHT. On the fifth day, a luciferase reporter gene detection kit (Biyuntian company, China) is used to process the cells. 100 uL of cell lysate is added to the 96-well plate, and lyse for 20 min. Then centrifuging is performed at 4 degrees and 10000 g for 3 min. 50 uL of supernatant is taken and 100 uL of a luciferase detection reagent is added. After mixing, chemiluminescence is immediately detected on the multi-functional microplate reader. Graphpad Prism software is used to draw a curve by using the drug concentration as an abscissa and using drug fluorescence value/positive control fluorescence value as an ordinate. Herein MDV3100 is the positive control."}, "[1]": {"tested_on": "Histone deacetylase (HDAC)", "assay": "HDAC inhibitory activity: Kac-tubulin Western Blot in VCaP cells", "details": "10 uM drug, 24 h, FIG. 4", "experimental": "(§1) The VCap cells are cultured in the 6-well plate. After treating the VCap cells with the drugs for 24 hours, acetylation levels of the tubulin in the cytoplasm and the H3 protein in the nucleus are examined by the western blot. An experiment process is as follows:\nThe VCaP cells are spread in the 6-well plate. 5×10^5 cells are inoculated per well, and incubated overnight to make the cells stick to a wall. On the second day, 10 uM of the drug is added per well. After being incubated for 24 h, the cells are collected, and lysed to extract the cell total protein. The Western Blot method is used to detect the expression levels of Kac-tubilin (localized cytoplasm) in the cells after treating with the different drugs."}, "[2]": {"tested_on": "Histone deacetylase (HDAC)", "assay": "HDAC inhibitory activity: Kac-H3 Western Blot in VCaP cells", "details": "10 uM drug, 24 h, FIG. 5", "experimental": "as §1\nThe VCaP cells are spread in the 6-well plate. 5×10^5 cells are inoculated per well, and incubated overnight to make the cells stick to a wall. Then 10 uM of the drug is added to each well. The cells are collected after being incubated for 24 h. The EpiQuik Total Histone Extraction kit (Epigentek, USA) is used to extract the histones, and the Western Blot method is used to detect expression levels of Kac-H3 (localized cell nucleus) in the cells after adding the different drugs."}, "[3]": {"tested_on": "AR protein in MDA-MB-453 TNBC cells", "assay": "AR protein Western blot in MDA-MB-453 cells", "details": "48 h, FIG. 8", "experimental": "MDA-MB-453 cells treated with Zeta55 or Tubastatin A at indicated concentrations for 48 h were harvested and lysed in ice-cold RIPA buffer with protease inhibitor Cocktail. After quantification by BCA, protein (30-50 μg) were separated with 10% SDS-PAGE gels and transferred onto polyvinylidene difluoride (PVDF) membranes. The following antibodies were used in this study: AR(CST,1:1000),α-tubulin(CST,1:1000), Ac-α-tubulin(CST,1:1000). Secondary antibodies: HRP-conjugated anti-mouse IgG and anti-rabbit IgG (Proteintech, 1:5000)."}, "MDA-MB-453 TNBC cells": {"tested_on": "MDA-MB-453 TNBC cells", "assay": "Cell proliferation of MDA-MB-453 (CCK8 cell viability)", "details": "72 h", "experimental": "8000 MDA-MB-453 cells were plated in each well of a 96-well plate and incubated for 48 hours. Then cells were treated with increasing concentrations of Zeta55, MDV3100 or SAHA for 72 h, At last, cell viability was measured using a CCK8 Assay kit."}}, "note": "pIC50: −log10 of the molar value."}
{"smiles": "N#Cc1ccc(N2C(=O)C3(CCC3)N(c3ccc(C(=O)NO)c(F)c3)C2=S)cc1C(F)(F)F", "note": "[Zeta 55, 4-(7-(4-cyano-3-(trifluoromethyl)phenyl)-8-oxo-6-thio-5,7-diazaspiro[3.4]octane-5-yl)-2-fluoro-N-hydroxybenzamide]", "values": [{"measurement": "antagonist effect on the AR, antagonistic ability from high to low", "setting": "androgen receptor (AR)", "result": "Zeta32>Zeta55>Zeta34>Zeta57>Zeta33"}, {"measurement": "acetylation of the tubulin in the cytoplasm (HDAC inhibitory activity)", "setting": "[1]", "result": "superior"}, {"measurement": "H3 acetylation in the nucleus (HDAC inhibitory activity)", "setting": "[2]", "result": "superior"}, {"measurement": "reduction of AR protein", "setting": "[3]", "result": "significant dose-dependent reduction of AR protein"}, {"measurement": "potency relative to MDV3100", "setting": "MDA-MB-453 TNBC cells; CCK8, FIG. 9", "result": "about 1.5 times"}, {"measurement": "pIC50", "setting": "MDA-MB-453 TNBC cells; Homo sapiens, CCK8, FIG. 9, read-out: IC50 of dose-dependent killing of the cells", "result": 4.95}]}
